Read-outs that look alike come from different tables or passages of the source.
Experiments:
[1] = biological target: GDP-bound NRAS wild-type protein (Homo sapiens, UniProt P01111); assay: Binding to NRAS by surface plasmon resonance (SPR), KD and KD ratio to KRAS
How it was run: (§1)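 Single-cycle kinetics on GDP-loaded biotin-Avi RAS captured to ~100–300 RU; 75 s ascending injections, 100 µL/min, 30°C. HBS pH 7.4 + 10 mM MgCl2/10 µM GDP/4% DMSO. 1:1 fit, KD.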

[2] = biological target: GDP-bound KRAS wild-type protein (Homo sapiens, UniProt P01116); assay: Binding to KRAS by surface plasmon resonance (SPR), dissociation constant KD
GDP-bound KRAS wild-type protein, sequence (P01116 1-188 isoform P01116-2): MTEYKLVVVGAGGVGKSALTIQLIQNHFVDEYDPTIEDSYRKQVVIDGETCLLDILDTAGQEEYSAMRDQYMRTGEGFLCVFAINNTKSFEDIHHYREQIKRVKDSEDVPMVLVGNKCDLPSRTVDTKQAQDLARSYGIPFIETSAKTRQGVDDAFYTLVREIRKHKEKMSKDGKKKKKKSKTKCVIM
How it was run: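 Affinity is measured by surface plasmon resonance at 30°C against captured, GDP-loaded RAS carrying a biotinylated Avi tag. Compounds are titrated by single-cycle kinetics, and KD comes from a 1:1 fit.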

[3] = tested on: human lung cancer strain NCI-H441; assay: NCI-H441 cell proliferation inhibitory activity (CellTiter-Glo, 4 days); type: cell-based; conditions: read-out: NCl-H441 IC50
How it was run: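 Proliferation was scored by […] measured after the reagent was added to cultures kept at 37°C in 5% carbon dioxide.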

[4] = biological target: HRAS wild-type protein (Homo sapiens, UniProt P01112); assay: Binding to HRAS by surface plasmon resonance (SPR), KD and KD ratio to KRAS
HRAS wild-type protein, sequence (P01112 whole entry): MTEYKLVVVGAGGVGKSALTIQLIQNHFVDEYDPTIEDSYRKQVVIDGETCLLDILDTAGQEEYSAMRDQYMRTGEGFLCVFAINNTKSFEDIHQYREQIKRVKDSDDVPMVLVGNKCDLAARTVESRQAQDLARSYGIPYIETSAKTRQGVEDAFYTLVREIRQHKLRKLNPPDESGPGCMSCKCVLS
How it was run: as §1

[5] = ratio of KD for GDP-bound NRAS wild-type protein to KD for KRAS
[6] = ratio of KD for HRAS wild-type protein to KD for KRAS
[7] = ratio of KD with respect to GDP-bound NRAS wild-type protein to KD with respect to KRAS
[8] = Single Cycle Kinetics, 1:1 binding model
[9] = 50% proliferation inhibitory concentration, four days
[10] = ratio of KD with respect to HRAS wild-type protein to KD with respect to KRAS

GDP-bound NRAS wild-type protein, sequence (P01111 whole entry): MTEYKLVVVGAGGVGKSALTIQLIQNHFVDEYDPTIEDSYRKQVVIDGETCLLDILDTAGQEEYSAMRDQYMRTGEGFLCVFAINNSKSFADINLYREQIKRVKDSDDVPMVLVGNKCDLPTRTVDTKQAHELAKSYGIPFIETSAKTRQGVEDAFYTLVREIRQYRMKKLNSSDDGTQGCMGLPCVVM

Kd ([2]; 1:1 binding model) [nM] | IC50 ([3]; NCI-H441 cells, 4 days) [nM] | Kd [2, 8] [nM] | IC50 [3, 9] [nM] | Kd ([2]; Single Cycle Kinetics) [nM] | Compound | NRAS /KRAS [1, 5] | HRAS /KRAS [4, 6] | NRAS /KRAS [1, 7] | HRAS /KRAS [4, 10]
1.9 | 147 | – | – | – | CCC(CC)[C@H]1C(=O)N(C)[C@H](C(=O)N(C)C)CC(=O)N(C)[C@@H](COC)C(=O)N[C@@H]([C@@H](C)CC)C(=O)N2CCC[C@H]2C(=O)N(C)[C@H]2C/C=C\CCN(C2=O)[C@@H](Cc2ccc(C(F)(F)F)cc2)C(=O)N(C)CC(=O)N[C@@H](CCc2ccc(Cl)c(Cl)c2)C(=O)N2C[C@H](OC3CCCC3)C[C@H]2C(=O)NC2(CC(C)(C)C2)C(=O)N1C [PP2651] | AA (a compound having 20 or more is denoted as AA) | A (a compound having 10 or more and less than 20 is denoted as A) | – | –
0.062 | 7.5 | – | – | – | CCOC[C@H]1C(=O)N[C@@H]([C@@H](C)CC)C(=O)N2CCC[C@H]2C(=O)N(C)[C@H]2C/C=C\CCN(C2=O)[C@@H](Cc2ccc(C(F)(F)F)cc2)C(=O)N(C)CC(=O)N[C@@H](CCc2ccc(C(F)(F)F)c(OC)c2)C(=O)N2C[C@@H](C)C[C@H]2C(=O)N(C)C2(CCC2)C(=O)N(C)[C@@H](C2CCCC2)C(=O)N(C)[C@H](C(=O)N(C)C)CC(=O)N1C [PP2363] | A (a compound having 10 or more and less than 20 is denoted as A) | B (a compound having 3 or more and less than 10 is denoted as B) | – | –
– | – | 0.88 | 67.9 | – | CCCCCC[C@H]1C(=O)N[C@@H]([C@@H](C)CC)C(=O)N(C)CC(=O)N(C)[C@H]2C/C=C\CCN(C2=O)[C@@H](Cc2ccc(C(F)(F)F)cc2)C(=O)N(C)CC(=O)N[C@@H](CCc2ccc(Cl)c(Cl)c2)C(=O)N2C[C@H](OCC)C[C@H]2C(=O)NC2(CCC2)C(=O)N(C)[C@@H](C(CC)CC)C(=O)N(C)[C@H](C(=O)N(C)C)CC(=O)N1C [PP1218] | – | – | AA (a compound having 20 or more is denoted as AA) | A (a compound having 10 or more and less than 20 is denoted as A)
– | – | 0.091 | 5 | – | CC[C@H](C)[C@@H]1NC(=O)[C@H](CC2CCC2)N(C)C(=O)C[C@@H](C(=O)N(C)C)N(C)C(=O)[C@H](C2CCCC2)N(C)C(=O)C2(CCCC2)NC(=O)[C@@H]2CCCN2C(=O)[C@H](CCc2ccc(C(F)(F)F)c(Cl)c2)NC(=O)CN(C)C(=O)[C@H](Cc2ccc(C(F)(F)F)cc2)N2C[C@H](C)CC[C@@H](C2=O)N(C)C(=O)CN(C)C1=O [PP1342] | – | – | B (a compound having 3 or more and less than 10 is denoted as B) | B (a compound having 3 or more and less than 10 is denoted as B)
– | 29.8 | – | – | 0.9 | CCCOC[C@H]1C(=O)N[C@@H](C2CCCC2)C(=O)N(CCC)CC(=O)N(C)[C@H]2C/C=C\CCN(C2=O)[C@@H](Cc2ccc(C(F)F)cc2)C(=O)N(C)CC(=O)N[C@@H](CCc2cc(F)c(C(F)(F)F)c(F)c2)C(=O)N2C[C@H](OCC)C[C@H]2C(=O)N(C)C2(CCC2)C(=O)N(C)[C@@H](C(CC)CC)C(=O)N(C)[C@H](C(=O)N(C)C)CC(=O)N1C [PP3507] | A (a compound having 10 or more and less than 20 is denoted as A) | A (a compound having 10 or more and less than 20 is denoted as A) | – | –
0.85 | 67.2 | – | – | – | CCC[C@H]1C(=O)N[C@@H]([C@@H](C)CC)C(=O)N2CCC[C@H]2C(=O)N(C)[C@H]2C/C=C\CCN(C2=O)[C@@H](CC2CCCCC2)C(=O)N(C)CC(=O)N[C@@H](CCc2ccc(C(F)(F)F)c(OC)c2)C(=O)N2C[C@@H](C)C[C@H]2C(=O)N(C)C2(CCC2)C(=O)N(C)[C@@H](C2CCCC2)C(=O)N(C)[C@H](C(=O)N(C)C)CC(=O)N1C [PP2374] | A (a compound having 10 or more and less than 20 is denoted as A) | A (a compound having 10 or more and less than 20 is denoted as A) | – | –

Reference: patent EP4603105A1, “PHARMACEUTICAL COMPOSITION CONTAINING CYCLIC COMPOUND HAVING SELECTIVE KRAS INHIBITORY EFFECT AGAINST HRAS AND NRAS” (CHUGAI SEIYAKU KABUSHIKI KAISHA, priority 2022, dated 2024)
